Laboratory results reported in patent EP4671261A1, “NOVEL PEPTIDE EXHIBITING SKIN CONDITION IMPROVEMENT ACTIVITY AND COSMETIC COMPOSITION CONTAINING SAME” (Daebong LS Co., Ltd., priority 2023, dated 2024).
Where a SMILES comes first, the peptide text is derived from it.

What was measured:
NHDF cells = assay: Procollagen Type I Peptide (PIP) production, EIA of culture supernatant; format: cell-based, Human; settings: 10 µg/mL (positive control), untreated group = 100
Method: Normal Human Dermal Fibroblasts (NHDF) were obtained from Lonza (Lonza Walkersville, Inc.) and cultured in FBM (Fibroblast Basal Medium) supplemented with 0.1% hFGF-B, insulin, GA-1000, and 2% FBS at 37°C in a 5% CO2 incubator. Subculture was performed every 2 to 3 days.
NHDF cells were seeded at 2.0 × 10^4 cells/well in a 24-well plate and incubated for 24 hours at 37°C in a 5% CO2 incubator. After incubation, the culture medium was replaced with serum-free FBM, and the peptide prepared in the above Example was applied at concentrations of 1-100 µM, followed by incubation for 24 hours. The supernatant from each experimental group was collected, and the amount of procollagen released into the medium was measured. The positive control group was treated with ascorbic acid at a concentration of 0.001 v/v%. Measurement of procollagen levels was performed using a Procollagen Type I Peptide (PIP) EIA Kit (Takara Biomedical Co.) according to the manufacturer's protocol. The quantitative results of procollagen type I peptide production following treatment with the peptide of the Example are shown in Table 3 and Fig. 4.

RAW264.7 cells [1] = assay: Inhibition of nitric oxide (NO) production, Griess reagent, LPS-stimulated macrophages; format: cell-based; settings: 10 µM (positive control), LPS (1µg/ml), relative to LPS control = 100
Method: (§1) RAW264.7 macrophage cells were obtained from the American Type Culture Collection (ATCC) and cultured in Dulbecco's Modified Eagle's Medium (DMEM) containing 100 units/mL penicillin-streptomycin and 10% (v/v) fetal bovine serum (FBS) at 37°C in a 5% CO2 incubator, and subculture was performed every 2 to 3 days.
RAW264.7 cells were seeded at 1.5 × 10^5 cells/well in a 24-well plate and incubated for 18 hours at 37°C in a 5% CO2 incubator. The cells were then treated with the peptide prepared in the above Example at concentrations of 50-200 µM and incubated for 24 hours. From each experimental group, 100 µL of the supernatant was collected into a 96-well plate, and 100 µL of griess reagent was added. The mixture was allowed to react at room temperature for 10 minutes, and absorbance was measured at 540 nm using a microplate reader. […] The relative levels of NO production following the treatments described in the above Example, based on NO production induced by the stimulant (LPS), are shown in Table 1 and Figure 2 below.

RAW264.7 cells [2] = assay: EZ-cytox cell viability assay in macrophages; format: cell-based; settings: 10 µM (positive control), LPS (1µg/ml)
Method: as §1
(§2) The EZ-cytox assay is a representative method for measuring cell viability using the principle that water-soluble tetrazolium salts (WSTs) react with dehydrogenases of viable cells to produce a water-soluble orange formazan.
(§3) To evaluate cytotoxicity, RAW264.7 cells were seeded at 1.5 × 10^4 cells/well in a 96-well plate using DMEM supplemented with 10% FBS and incubated for 18 hours at 37°C in a 5% CO2 incubator. The test samples were then applied to the cultured cells. After treatment, EZ-cytox was added to each well and incubated for 30 minutes under the same conditions. Absorbance was measured at 450 nm using a microplate reader. The mean absorbance values of each sample group were compared with the control group to determine cell viability.

[3] = EZ-cytox cell viability assay in macrophages; format: cell-based; settings: mouse, RAW264.7 macrophage cells, LPS (1µg/ml)
Method: as §1, §2, §3

HaCaT cells = assay: Hyaluronic acid (HA) production, ELISA of culture supernatant; format: cell-based, human; settings: 10 mM (positive control), untreated group = 100
Method: The HaCaT human keratinocyte cell line was obtained from Cell Line Service GmbH (Germany). The cells were cultured in DMEM containing 1% penicillin-streptomycin and 10% fetal bovine serum (FBS) at 37°C in a 5% CO2 incubator, and subculture was performed every 2 to 3 days.
HaCaT cells were seeded at 1.0 × 10^5 cells/well in a 24-well plate and incubated for 24 hours at 37°C in a 5% CO2 incubator. After incubation, the culture medium was replaced with serum-free DMEM, and the peptide prepared in the above Example was applied at concentrations of 50-200 µM, followed by incubation for 24 hours. The supernatant from each experimental group was collected, and the amount of hyaluronic acid (HA) released into the medium was measured. The positive control group was treated with N-acetylglucosamine at a concentration of 10 mM. Measurement of hyaluronic acid production was conducted using a Hyaluronic Acid ELISA Kit (Cusabio Biotechnology Co., Ltd.) following the manufacturer's protocol.

With `O=C1O[C@H]([C@@H](O)CO)C(O)=C1O` [Asc.A, ascorbic acid] the “Procollagen production (%)” value (NHDF cells) was 175.82±3.91%.

For `Cc1ccnc(N)c1` [Example 2-AM, 2-amino-4-methylpyridine], the “NO Production (%)” value (RAW264.7 cells [1]) was 10.23±0.55% and the “Cell viability (%)” value (RAW264.7 cells [2]) was 94.12±1.76%.

`N[C@@H](Cc1ccc(O)cc1)C(=O)NCC(=O)N[C@@H](CO)C(=O)N[C@@H](CC(=O)O)C(=O)O` [Example, YGSD (Tyr-Gly-Ser-Asp)] (H-YGSD-OH) showed a viability at 50 µM ([3]; 50 µM) of 98.1 ± 1.81%, a viability at 100 µM ([3]; 100 µM) of 99.4 ± 2.02% and a viability at 200 µM ([3]; 200 µM) of 99.53 ± 0.95%.

For `CC(=O)N[C@H]1C(O)O[C@H](CO)[C@@H](O)[C@@H]1O` (stereo partly shown) [NAG, N-acetylglucosamine], the “Hyaluronic acid production (%)” value (HaCaT cells) was 121.43±10.37%.
